Like-named read-outs stand apart in the source and are kept apart here.
How the values were obtained:
[1] = biological target: T1, HCV NS5B polymerase (His-tagged, C-terminal 21 amino acid deleted NS5B, HC-J4) (Hepatitis C virus genotype 1b, UniProt O92972); test: NS5b polymerase assay (biochemical RdRp assay, 3H-GTP incorporation, SPA beads); set-up: species or system HCV genotype 1b
T1 construct: The cDNA encoding NS5B amino acid 1-570 (HC-J4, genotype 1b); His tag (His6, from pET-21b) (C); made in house; host or cells: E. coli BL21 (DE3)
T1 sequence (O92972 2417-3000, looked up, stated change not applied): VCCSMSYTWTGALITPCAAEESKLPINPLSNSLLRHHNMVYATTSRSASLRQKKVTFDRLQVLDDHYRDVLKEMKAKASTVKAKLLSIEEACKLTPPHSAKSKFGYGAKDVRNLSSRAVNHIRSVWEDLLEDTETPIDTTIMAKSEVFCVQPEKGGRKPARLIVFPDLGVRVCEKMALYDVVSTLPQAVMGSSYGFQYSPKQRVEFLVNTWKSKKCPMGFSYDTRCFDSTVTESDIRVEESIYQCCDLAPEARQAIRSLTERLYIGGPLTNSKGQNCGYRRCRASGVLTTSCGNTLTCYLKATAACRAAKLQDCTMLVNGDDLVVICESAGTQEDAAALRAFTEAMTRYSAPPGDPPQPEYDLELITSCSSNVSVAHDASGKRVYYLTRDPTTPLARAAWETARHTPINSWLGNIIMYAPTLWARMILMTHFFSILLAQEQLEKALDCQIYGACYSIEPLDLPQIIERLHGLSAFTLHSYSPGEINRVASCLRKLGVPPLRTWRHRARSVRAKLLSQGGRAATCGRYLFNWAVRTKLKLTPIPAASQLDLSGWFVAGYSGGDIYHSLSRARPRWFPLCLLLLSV
Method: (§1) The compounds of formula (I) were tested for anti-HCV activity in an assay determining their activity against NS5b polymerase and in an HCV replicon assay
The cDNA encoding NS5B amino acid 1-570 (HC-J4, genotype 1b, pCV-J4L6S, genebank accession number AF054247) was subcloned into the Nhe I and Xho I restriction sites of pET-21b. Expression of the subsequent His-tagged C-terminal 21 amino acid deleted NS5B was performed as follows:
Following transformation in BL21 (DE3) competent cells, bacterial cells were grown in 22 liter LB/Amp media until to reach OD600=0.4-0.6. Protein expression was induced by addition of IPTG 0.4 mM, supplemented with 10 μM MgCl2, and incubated for 14-16 hrs at 20° C. Cells were harvested, resuspended in lysis buffer (20 mM Tris-HCl pH=7.5, 0.3 M NaCl, 10% glycerol, 0.1% NP40, 4 mM MgCl2, 14 mM beta-mercaptoethanol, with tablet of EDTA-free protease cocktail inhibitors) and lysed by sonification. The cell lysate was cleared by high-speed centrifugation (20K×g for 30 min), captured on Ni-NTA beads for 70 min at 4° C., and eluted with 25 mM Hepes pH 7.5, 0.5 M NaCl, 10% glycerol, 14 mM BME, 500 mM imidazole. The eluent was dialysed against 25 mM Hepes pH 7.5, 10% glycerol, 50 mM NaCl, 14 mM BME, after which the protein was further purified by heparin chromatography using the same buffer with 1 M NaCl for elution. Fractions containing pure protein were collected, dialyzed against storage buffer 25 mM Hepes pH=7.5, 300 mM NaCl, 10% glycerol, 14 mM BME), and flash-freezed in liquid nitrogen.
Measurement of HCV NS5B polymerization activity was performed by evaluating the amount of radiolabeled GTP incorporated by the enzyme in a newly synthesized RNA using heteropolymeric RNA template/primer. The highthroughput RdRp assay was carried out in 384-well plates using 200 nM enzyme, 0.1 μCi of ^3H GTP, 5 mM MgCl2, 600 nM GTP, 30 nM PolyC, 300 nM 5′-biotinylated oligo(rG13)/poly(rC) in 20 mM Tris pH 7.5, 21 mM KCl, 2.5 mM DTT, 16.7 mM NaCl and 0.17 mM EDTA. Test compounds were dissolved in dimethylsulfoxide. The test compounds were added to the preformed polymerase-template complex, and incubated at room temperature (RT) for 15 min before the addition of NTPs. The 30-μl reaction was terminated after 2 h at 25° C. upon addition of 30-μl PVT-SPA beads (Amersham Biosciences RPNQ0009, 5 mg/ml in 0.5 M EDTA).

[2] = system: HCV replicon RNA replication in Huh-7 luc/neo (Huh-Luc) cells; test: HCV replicon assay (stable replicon cell reporter assay, luciferase read-out); format: cell-based, HCV type 1b
Method: as §1
The compounds of the present invention were examined for activity in the inhibition of HCV RNA replication in a cellular assay. […] The cellular assay was based on a bicistronic expression construct, as described by Lohmann et al. (1999) Science vol. 285 pp. 110-113 with modifications described by Krieger et al. (2001) Journal of Virology 75: 4614-4624, in a multi-target screening strategy. In essence, the method was as follows.
The assay utilized the stably transfected cell line Huh-7 luc/neo (hereafter referred to as Huh-Luc). This cell line harbored an RNA encoding a bicistronic expression construct comprising the wild type NS3-NS5B regions of HCV type 1b translated from an Internal Ribosome Entry Site (IRES) from encephalomyocarditis virus (EMCV), preceded by a reporter portion (FfL-luciferase), and a selectable marker portion (neo^R, neomycine phosphotransferase). The construct was bordered by 5′ and 3′ NTRs (non-translated regions) from HCV type 1b. Continued culture of the replicon cells in the presence of G418 (neo^R) was dependent on the replication of the HCV RNA. The stably transfected replicon cells that expressed HCV RNA, which replicated autonomously and to high levels, encoding inter alia luciferase, were used for screening the antiviral compounds.
The replicon cells were plated in 384 well plates in the presence of the test and control compounds which were added in various concentrations. Following an incubation of three days, HCV replication was measured by assaying luciferase activity (using standard luciferase assay substrates and reagents and a Perkin Elmer ViewLux™ ultraHTS microplate imager). […] The inhibitory activity of the compound on luciferase activity was monitored on the Huh-Luc cells, enabling a dose-response curve for each test compound.

[3] = NS5B Polymerase Assay IC50 (μM)
[4] = Hepatitis C virus, Huh-7, 72 h, read-out: Replicon Assay EC50 (μM), Huh-Luc cells, incubation of three days, luciferase activity
[5] = 200 nM enzyme, 3H-GTP incorporation, 2 h at 25° C., read-out: NS5B Polymerase Assay IC50
[6] = Huh-Luc cells, three days incubation, luciferase activity, read-out: Replicon Assay EC50
[7] = NS5B Polymerase Assay IC50, 200 nM enzyme, 3H-GTP incorporation, 2 h at 25° C.
[8] = Hepatitis C virus, Huh-7, 72 h, read-out: Replicon Assay EC50, Huh-Luc cells, three days incubation, luciferase activity

SMILES	IC50 [1, 3] [µM]	EC50 [2, 4] [µM]	IC50 [1, 7] [µM]	other results
CC1(C)CC(=O)C2=C(C1)Nc1ccc(C#N)cc1NC2c1ccc(Cl)cc1Cl (centres unmarked) [compound 473]	50	20		
CC(=O)N1c2ccccc2NC2=C(C(=O)CC(C)(C)C2)C1c1ccc(OCc2ccccc2)cc1 (centres unmarked) [compound 42]				IC50 [1, 5]: 5.68 µM; EC50 [2, 6]: 6.39 µM
O=C1CC(c2ccccc2OCc2ccccc2)CC2=C1C(c1cccc(OCc3ccccc3)c1)Nc1ccccc1N2 (single isomer, unassigned) [compound 420, 3-(2-Benzyloxyphenyl)-11-(3-benzyloxyphenyl)-2,3,4,5,10,11-hexahydro-dibenzo[b,e][1,4]diazepin-1-one]	> 42.7	3.23		
COc1ccc(C2C3=C(CC(C)(C)CC3=O)Nc3ccccc3N2C(=O)C(F)(F)F)cc1OC (centres unmarked) [compound 106]			> 42.7	EC50 [2, 8]: > 32 µM
CCC(C)Oc1ccccc1C1C2=C(CC(C)(C)CC2=O)Nc2ccccc2N1C(=O)C(F)(F)F (centres unmarked) [compound 65]			> 42.7	EC50 [2, 8]: 2.48 µM
COc1ccc(C2CC(=O)C3=C(C2)Nc2ccccc2NC3c2cc(Br)ccc2OC)cc1OC (centres unmarked) [compound 404]	> 42.7	3.24		
COc1ccc(C2CC(=O)C3=C(C2)Nc2ccccc2NC3c2ccccc2C)cc1 (centres unmarked) [compound 381]	> 42.7	4.77		
CCOc1ccc(C2Nc3ccccc3NC3=C2C(=O)CC(c2ccc(OC)cc2)C3)cc1 (centres unmarked) [compound 332]	> 42.7	9.74		
COc1ccc(C2CC(=O)C3=C(C2)Nc2ccccc2N(C(C)=O)C3c2cccc(Cl)c2)cc1OC (mixture of isomers) [compound 198]				IC50 [1, 5]: > 33.3 µM; EC50 [2, 6]: 9.22 µM
CCOc1ccccc1C1C2=C(CC(c3ccc(OC)cc3)CC2=O)Nc2ccccc2N1C(C)=O (centres unmarked) [compound 179]				IC50 [1, 5]: > 42.7 µM; EC50 [2, 6]: 8.54 µM
CN1c2ccccc2NC2=C(C(=O)CC(C)(C)C2)C1c1ccc(Cl)cc1Cl (centres unmarked) [compound 507, 11-(2,4-Dichlorophenyl)-2,3,4,5,10,11-hexahydro-3,3,10-trimethyl-1H-dibenzo[b,e][1,4]diazepin-1-one]	> 42.7	4.63		
CC(=O)N1c2ccccc2NC2=C(C(=O)CC(C)(C)C2)C1c1ccc(Cl)cc1Cl (single isomer, unassigned) [compound 35, 10-Acetyl-11-(2,4-dichlorophenyl)-2,3,4,5,10,11-hexahydro-3,3-dimethyl-1H-dibenzo[b,e][1,4]diazepin-1-one]			1.28	EC50 ([2]; read-out: Replicon Assay EC50, Huh-Luc cells, three days incubation, luciferase activity): 20.5 µM
CC1(C)CC(=O)C2=C(C1)Nc1ccccc1N(C(=O)Cc1ccc(F)cc1)C2c1cccs1 (centres unmarked) [compound 251]			> 42.6	EC50 [2, 8]: 9.88 µM
COc1ccc(OC)c(C2Nc3ccccc3NC3=C2C(=O)CC(c2ccc(Cl)cc2)C3)c1 (centres unmarked) [compound 356]	> 42.7	16.1		
Cc1ccc(C2Nc3ccccc3NC3=C2C(=O)CC(c2ccccc2)C3)cc1[N+](=O)[O-] (centres unmarked) [compound 358]	> 42.7	20.4		
CC1(C)CC(=O)C2=C(C1)Nc1ccccc1N(C(=O)Cc1ccccc1)C2c1cc2c(cc1Br)OCO2 (centres unmarked) [compound 268]			> 42.7	EC50 [2, 8]: 9.04 µM
COc1ccc(C2C3=C(CC(C)(C)CC3=O)Nc3ccccc3N2C(=O)C(F)(F)F)cc1 (centres unmarked) [compound 110]			> 42.7	EC50 [2, 8]: 8.11 µM

SMILES	IC50 [1, 3] [µM]	EC50 [2, 4] [µM]	IC50 [1, 7] [µM]	other results
CC1(C)CC(=O)C2=C(C1)Nc1ccccc1NC2c1cccnc1 (centres unmarked) [compound 499]	> 42.7	> 32		
CCC(=O)N1c2ccccc2NC2=C(C(=O)CC(C)(C)C2)C1c1ccc(-c2ccccc2[N+](=O)[O-])o1 (centres unmarked) [compound 241]			> 42.7	EC50 [2, 8]: 17.1 µM
CCC(=O)N1c2ccccc2NC2=C(C(=O)CC(C)(C)C2)C1c1ccccc1OCc1ccccc1 (centres unmarked) [compound 11]			> 42.7	EC50 [2, 8]: 14.7 µM
CC(=O)N1c2ccccc2NC2=C(C(=O)CC(c3ccccc3Cl)C2)C1c1ccc(C)cc1 (centres unmarked) [compound 229]				IC50 [1, 5]: > 42.7 µM; EC50 [2, 6]: 10.9 µM
CCC(=O)N1c2ccccc2NC2=C(C(=O)CC(c3ccco3)C2)C1c1cccc([N+](=O)[O-])c1 (centres unmarked) [compound 288]				IC50 [1, 5]: > 42.7 µM; EC50 [2, 6]: 25 µM
CCCCOc1ccc(C2CC(=O)C3=C(C2)Nc2ccccc2N(C(=O)C(F)(F)F)C3c2ccccc2)cc1 (centres unmarked) [compound 171]				IC50 [1, 5]: > 42.7 µM; EC50 [2, 6]: 4.54 µM
CCC(=O)N1c2ccccc2NC2=C(C(=O)CC(c3ccc(OC)c(OC)c3)C2)C1c1ccc(Cl)cc1 (centres unmarked) [compound 228]				IC50 [1, 5]: > 33.3 µM; EC50 [2, 6]: 17.2 µM
CC1(C)CC(=O)C2=C(C1)Nc1ccccc1NC2c1ccc(Cl)cc1Cl (centres unmarked) [compound 423, 11-(2,4-dichlorophenyl)-2,3,4,5,10,11-hexahydro-3,3-dimethyl-1H-dibenzo[b,e][1,4]diazepin-1-one]	37.9	26.4		
CCCCOc1cccc(C2C3=C(CC(C)(C)CC3=O)Nc3ccccc3N2C(C)=O)c1 (centres unmarked) [compound 79]			> 42.7	EC50 [2, 8]: 31.3 µM
CC1(C)CC(=O)C2=C(C1)Nc1ccccc1NC2c1ccc(OCc2ccccc2)cc1Cl (centres unmarked) [compound 443]	0.312	1.78		
CC1(C)CC(=O)C2=C(C1)Nc1ccccc1NC2c1cccc(Cl)c1Cl (centres unmarked) [compound 427]	> 42.7	20.7		
CC1(C)CC(=O)C2=C(C1)Nc1ccccc1N(C(=O)Cc1ccccc1)C2c1cccc(Cl)c1 (centres unmarked) [compound 31]			> 42.7	EC50 [2, 8]: 6.36 µM
COc1ccc(C2CC(=O)C3=C(C2)Nc2ccccc2NC3c2cccc(Cl)c2Cl)cc1 (centres unmarked) [compound 357]	> 42.7	7.01		
COc1cc(C2C3=C(CC(C)(C)CC3=O)Nc3ccccc3N2C(C)=O)ccc1OCc1ccccc1 (centres unmarked) [compound 124]				IC50 [1, 5]: 8.56 µM; EC50 [2, 6]: 28.9 µM
CCCCCC(=O)N1c2ccccc2NC2=C(C(=O)CC(C)(C)C2)C1c1ccccc1OC(C)CC (centres unmarked) [compound 93]			> 42.7	EC50 [2, 8]: 4.05 µM
CC1(C)CC(=O)C2=C(C1)Nc1ccccc1NC2c1ccc(OCc2ccccc2)cc1OCc1ccccc1 (centres unmarked) [compound 445, 11-[2,4-dibenzyloxyphenyl]-3,3-dimethyl-2,3,4,5,10,11-hexahydro-1H-dibenzo[b,e][1,4]diazepin-1-one]	> 133	1.98		
CCCCOc1ccccc1C1Nc2ccccc2NC2=C1C(=O)CC(c1ccccc1)C2 (centres unmarked) [compound 338]	> 42.7	16.9		

Source: patent publication US20090221559A1 (priority 2005, published 2009)
